Laboratory results as given in paper PMC3914206.

Assays:
Format in all cases: binding
panel of 442 kinases [1] = target: T1, panel of 442 kinases (Homo sapiens, UniProt O75116); conditions: Compound Concentration 10 µM
T1 construct: purchased KINOMEscan
From the text: (§1) We assessed the selectivity of members of this scaffold using the KINOMEscan methodology across a near comprehensive panel of 442 kinases [[18,27]].

panel of 442 kinases [2] = target: T2, panel of 442 kinases (Homo sapiens, UniProt Q8IVW4); conditions: Compound Concentration 10 µM
T2 construct: purchased KINOMEscan
T2 sequence (Q8IVW4 whole entry): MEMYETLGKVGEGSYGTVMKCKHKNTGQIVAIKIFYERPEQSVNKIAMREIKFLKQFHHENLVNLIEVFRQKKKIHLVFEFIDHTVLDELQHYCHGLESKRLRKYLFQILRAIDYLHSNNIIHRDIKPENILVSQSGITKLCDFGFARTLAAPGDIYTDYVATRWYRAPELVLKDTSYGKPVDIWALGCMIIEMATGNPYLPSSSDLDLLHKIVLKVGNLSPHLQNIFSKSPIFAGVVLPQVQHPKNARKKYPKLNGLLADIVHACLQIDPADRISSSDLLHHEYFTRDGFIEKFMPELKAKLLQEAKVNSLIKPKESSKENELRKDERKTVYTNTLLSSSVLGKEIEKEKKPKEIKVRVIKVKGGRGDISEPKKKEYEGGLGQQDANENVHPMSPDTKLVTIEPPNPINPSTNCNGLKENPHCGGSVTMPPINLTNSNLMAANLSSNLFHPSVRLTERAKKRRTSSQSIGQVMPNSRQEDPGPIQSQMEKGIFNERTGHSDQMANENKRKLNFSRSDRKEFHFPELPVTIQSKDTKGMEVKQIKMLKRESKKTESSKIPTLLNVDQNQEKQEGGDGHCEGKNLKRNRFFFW
From the text: as §1

panel of 442 kinases [3] = conditions: for KINOMEscan: EGFR(L747-E749del, A750P) / KINOMEscan: EGFR(L747-S752del, P753S) / KINOMEscan: EGFR(L747-T751del,Sins) / KINOMEscan: FLT3(ITD): Compound Concentration 10 µM; for Number of score not higher than 10: of 442 total assayed kinases, % Ctrl ≤ 10; for Number of score not higher than 10 / S10: compound concentration 10 µM; for S10: selectivity score = (number of kinases with %Ctrl ≤ 10)/total number of kinases tested (442)
From the text: as §1

panel of 442 kinases [4] = target: T3, panel of 442 kinases (Homo sapiens, UniProt P42336, I800L); conditions: Compound Concentration 10 µM
T3 construct: purchased KINOMEscan
T3 sequence (P42336 whole entry I800L): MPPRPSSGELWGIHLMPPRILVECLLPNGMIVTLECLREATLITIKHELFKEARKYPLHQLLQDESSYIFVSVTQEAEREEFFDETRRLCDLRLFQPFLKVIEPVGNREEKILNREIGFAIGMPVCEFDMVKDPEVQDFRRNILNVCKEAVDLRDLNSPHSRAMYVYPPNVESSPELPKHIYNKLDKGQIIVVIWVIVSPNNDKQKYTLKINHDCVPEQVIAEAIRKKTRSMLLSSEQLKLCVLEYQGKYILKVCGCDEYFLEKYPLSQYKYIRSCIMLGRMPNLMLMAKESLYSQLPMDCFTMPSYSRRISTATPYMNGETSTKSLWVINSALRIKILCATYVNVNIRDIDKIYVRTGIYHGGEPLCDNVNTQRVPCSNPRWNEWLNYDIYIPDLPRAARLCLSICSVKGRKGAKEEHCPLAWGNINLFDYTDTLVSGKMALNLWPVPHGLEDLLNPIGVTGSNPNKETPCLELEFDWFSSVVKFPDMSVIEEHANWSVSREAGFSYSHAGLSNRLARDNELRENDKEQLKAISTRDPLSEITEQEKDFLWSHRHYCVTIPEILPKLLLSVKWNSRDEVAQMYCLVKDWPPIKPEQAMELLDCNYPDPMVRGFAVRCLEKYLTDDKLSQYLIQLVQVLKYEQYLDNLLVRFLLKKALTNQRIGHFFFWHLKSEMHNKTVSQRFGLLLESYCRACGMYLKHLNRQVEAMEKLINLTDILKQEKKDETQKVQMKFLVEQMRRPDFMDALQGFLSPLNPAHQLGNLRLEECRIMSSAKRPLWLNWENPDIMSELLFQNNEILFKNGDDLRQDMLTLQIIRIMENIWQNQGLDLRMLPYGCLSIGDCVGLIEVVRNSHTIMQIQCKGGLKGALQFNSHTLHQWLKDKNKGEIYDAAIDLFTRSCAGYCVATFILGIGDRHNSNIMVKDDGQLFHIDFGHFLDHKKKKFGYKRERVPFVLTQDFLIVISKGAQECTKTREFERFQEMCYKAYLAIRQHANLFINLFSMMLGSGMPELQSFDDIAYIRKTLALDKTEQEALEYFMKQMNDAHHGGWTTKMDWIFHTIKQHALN
From the text: as §1

T1 sequence (O75116 whole entry): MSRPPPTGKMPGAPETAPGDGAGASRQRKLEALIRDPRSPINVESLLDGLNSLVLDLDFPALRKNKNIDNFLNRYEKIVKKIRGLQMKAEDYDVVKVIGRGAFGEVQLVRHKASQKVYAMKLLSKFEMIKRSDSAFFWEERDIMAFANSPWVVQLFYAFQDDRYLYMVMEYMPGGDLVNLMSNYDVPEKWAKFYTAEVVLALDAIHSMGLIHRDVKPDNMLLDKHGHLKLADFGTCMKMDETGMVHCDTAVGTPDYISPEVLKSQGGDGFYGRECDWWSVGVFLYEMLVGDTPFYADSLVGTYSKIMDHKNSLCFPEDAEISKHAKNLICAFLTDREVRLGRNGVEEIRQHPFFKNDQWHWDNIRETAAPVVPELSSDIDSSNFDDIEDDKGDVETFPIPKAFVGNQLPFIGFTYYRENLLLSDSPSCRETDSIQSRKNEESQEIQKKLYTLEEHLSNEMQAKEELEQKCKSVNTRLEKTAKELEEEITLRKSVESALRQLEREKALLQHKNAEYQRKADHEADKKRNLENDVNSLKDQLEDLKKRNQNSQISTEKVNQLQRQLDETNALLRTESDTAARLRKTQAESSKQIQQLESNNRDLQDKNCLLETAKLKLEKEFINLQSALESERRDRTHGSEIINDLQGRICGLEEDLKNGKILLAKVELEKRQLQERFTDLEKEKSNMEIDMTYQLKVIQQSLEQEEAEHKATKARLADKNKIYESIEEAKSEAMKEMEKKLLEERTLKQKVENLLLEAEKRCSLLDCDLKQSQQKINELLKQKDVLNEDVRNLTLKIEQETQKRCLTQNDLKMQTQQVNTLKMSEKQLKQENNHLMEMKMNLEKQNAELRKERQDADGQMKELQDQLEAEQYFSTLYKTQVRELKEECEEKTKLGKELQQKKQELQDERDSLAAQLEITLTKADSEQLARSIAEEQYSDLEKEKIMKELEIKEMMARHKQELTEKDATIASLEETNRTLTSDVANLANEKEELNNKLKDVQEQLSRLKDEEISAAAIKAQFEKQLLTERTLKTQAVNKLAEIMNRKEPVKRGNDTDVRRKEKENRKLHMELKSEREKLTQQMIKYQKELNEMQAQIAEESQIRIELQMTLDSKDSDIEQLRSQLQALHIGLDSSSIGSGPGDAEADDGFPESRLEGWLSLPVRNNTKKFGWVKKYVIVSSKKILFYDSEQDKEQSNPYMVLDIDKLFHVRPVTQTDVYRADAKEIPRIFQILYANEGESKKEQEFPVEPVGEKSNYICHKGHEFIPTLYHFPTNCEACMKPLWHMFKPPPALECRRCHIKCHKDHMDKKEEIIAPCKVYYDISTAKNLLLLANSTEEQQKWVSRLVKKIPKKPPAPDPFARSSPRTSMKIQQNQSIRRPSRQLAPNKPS

Compound	KINOMEscan: ROCK2 (panel of 442 kinases [1])	KINOMEscan: CDKL3 (panel of 442 kinases [2])	KINOMEscan: EGFR(L747-E749del, A750P) (panel of 442 kinases [3])	KINOMEscan: EGFR(L747-S752del, P753S) (panel of 442 kinases [3])	KINOMEscan: EGFR(L747-T751del,Sins) (panel of 442 kinases [3])	KINOMEscan: FLT3(ITD) (panel of 442 kinases [3])	Number of score not higher than 10 (panel of 442 kinases [3])	S10 (panel of 442 kinases [3])	KINOMEscan: PIK3CA(I800L) (panel of 442 kinases [4])	KINOMEscan selectivity score (S10) (panel of 442 kinases [3]; screened at 10 μM, 442 kinases)
COc1cc(C(=O)N2CCC(N3CCN(C)CC3)CC2)ccc1Nc1ncc2c(n1)N(C)c1ccccc1C(=O)N2C [15 (LRRK2-IN-1)]	87	83	78	84	100	100	16	0.036	38	
COc1cc(C(=O)N2CCC(N3CCN(C)CC3)CC2)ccc1Nc1ncc2c(n1)N1CCc3cccc(c31)C(=O)N2C [Compound 24]	65	81							64	
COc1cc(C(=O)N2CCC(N3CCN(C)CC3)CC2)ccc1Nc1ncc2c(n1)N(C1CCCC1)c1ccccc1C(=O)N2C [Compound 25, 11-cyclopentyl-2-((2-methoxy-4-(4-(4-methylpiperazin-1-yl)piperidine-1-carbonyl)phenyl)amino)-5-methyl-5H-benzo[e]pyrimido[5,4-b][1,4]diazepin-6(11H)-one]	79	73	85	74	76	100	8	0.018	100	0.018
CCOc1cc(C(=O)N2CCC(N3CCN(C)CC3)CC2)ccc1Nc1ncc2c(n1)N(C1CCCC1)c1ccccc1C(=O)N2C [Compound 26]	83	99	100	100	100	100	3	0.007	75	
